test system: human JAK1 (a.a. 837-1142); experiment: In vitro JAK kinase assay (HTRF, phosphorylation of biotinylated peptide), JAK1; format: biochemical; details: ratio of IC50 at 1 mM ATP
Protocol: The catalytic activity of JAK1, JAK2 or JAK3 was assayed by measuring the phosphorylation of a biotinylated peptide. The phosphorylated peptide was detected by homogenous time resolved fluorescence (HTRF). […] Reactions were carried out at room temperature for 1 hour and then stopped with 20 μL 45 mM EDTA, 300 nM SA-APC, 6 nM Eu-Py20 in assay buffer (Perkin Elmer, Boston, Mass.). Binding to the Europium labeled antibody took place for 40 minutes and HTRF signal was measured on a Fusion plate reader (Perkin Elmer, Boston, Mass.).

JAK2/JAK1, A (A means greater than or equal to 10):
CN(C(=O)c1ccc(N2CC(CC#N)(n3cc(-c4ncnc5[nH]ccc45)cn3)C2)c(F)c1)C1CC1 [Example 7, 4-{3-(Cyanomethyl)-3-[4-(7H-pyrrolo[2,3-d]pyrimidin-4-yl)-1H-pyrazol-1-yl]azetidin-1-yl}-N-cyclopropyl-3-fluoro-N-methylbenzamide]
C[C@@H](NC(=O)c1ccc(N2CC(CC#N)(n3cc(-c4ncnc5[nH]ccc45)cn3)C2)cc1F)C1CC1 [Example 39, 4-{3-(Cyanomethyl)-3-[4-(7H-pyrrolo[2,3-d]pyrimidin-4-yl)-1H-pyrazol-1-yl]azetidin-1-yl}-N-[(1R)-1-cyclopropylethyl]-2-fluorobenzamide]
N#CCC1(n2cc(-c3ncnc4[nH]ccc34)cn2)CN(c2cnc(C(=O)N[C@@H](C3CC3)C(F)(F)F)cn2)C1 [Example 32, 5-{3-(Cyanomethyl)-3-[4-(7H-pyrrolo[2,3-d]pyrimidin-4-yl)-1H-pyrazol-1-yl]azetidin-1-yl}-N-[(1S)-1-cyclopropyl-2,2,2-trifluoroethyl]pyrazine-2-carboxamide]
C[C@@H](NC(=O)c1cnc(N2CC(CC#N)(n3cc(-c4ncnc5[nH]ccc45)cn3)C2)cn1)C(F)(F)F [Example 30, 5-{3-(Cyanomethyl)-3-[4-(7H-pyrrolo[2,3-d]pyrimidin-4-yl)-1H-pyrazol-1-yl]azetidin-1-yl}-N-[(1R)-2,2,2-trifluoro-1-methylethyl]pyrazine-2-carboxamide]
CCNC(=O)c1ccc(N2CC(CC#N)(n3cc(-c4ncnc5[nH]ccc45)cn3)C2)cn1 [Example 24, 5-{3-(Cyanomethyl)-3-[4-(7H-pyrrolo[2,3-d]pyrimidin-4-yl)-1H-pyrazol-1-yl]azetidin-1-yl}-N-ethylpyridine-2-carboxamide]
N#CCC1(n2cc(-c3ncnc4[nH]ccc34)cn2)CN(c2cc(F)c(C(=O)NCC(F)F)cc2F)C1 [Example 37, 4-{3-(Cyanomethyl)-3-[4-(7H-pyrrolo[2,3-d]pyrimidin-4-yl)-1H-pyrazol-1-yl]azetidin-1-yl}-N-(2,2-difluoroethyl)-2,5-difluorobenzamide]
CC(C)NC(=O)c1ccc(N2CC(CC#N)(n3cc(-c4ncnc5[nH]ccc45)cn3)C2)cn1 [Example 9, 5-{3-(Cyanomethyl)-3-[4-(7H-pyrrolo[2,3-d]pyrimidin-4-yl)-1H-pyrazol-1-yl]azetidin-1-yl}-N-isopropylpyridine-2-carboxamide]
CC(C)NC(=O)c1cc(Cl)c(N2CC(CC#N)(n3cc(-c4ncnc5[nH]ccc45)cn3)C2)cc1F [Example 8, 5-Chloro-4-{3-(cyanomethyl)-3-[4-(7H-pyrrolo[2,3-d]pyrimidin-4-yl)-1H-pyrazol-1-yl]azetidin-1-yl}-2-fluoro-N-isopropylbenzamide]
N#CCC1(n2cc(-c3ncnc4[nH]ccc34)cn2)CN(c2ccc(C(=O)NC3(C(F)(F)F)CC3)nc2)C1 [Example 17, 5-{3-(Cyanomethyl)-3-[4-(7H-pyrrolo[2,3-d]pyrimidin-4-yl)-1H-pyrazol-1-yl]azetidin-1-yl}-N-[1-(trifluoromethyl)cyclopropyl]pyridine-2-carboxamide]
N#CCC1(n2cc(-c3ncnc4[nH]ccc34)cn2)CN(c2ccc(C(=O)N[C@@H](C3CC3)C(F)(F)F)cc2)C1 [Example 38, 4-{3-(Cyanomethyl)-3-[4-(7H-pyrrolo[2,3-d]pyrimidin-4-yl)-1H-pyrazol-1-yl]azetidin-1-yl}-N-[(1S)-1-cyclopropyl-2,2,2-trifluoroethyl]benzamide]

Reference: patent US10513522B2, “Azetidinyl phenyl, pyridyl or pyrazinyl carboxamide derivatives as JAK inhibitors” (Incyte Corporation, priority 2011, dated 2019)
